Data taken from ChEMBL document CHEMBL4340564, “Quercetin-3-oleoyl derivatives as new GPR40 agonists: Molecular docking studies and functional evaluation” (Bioorg Med Chem Lett, 2019).
Activity calls are given as the source filed them. No cut-off for these calls is given here.

How the values were obtained:
Type in all cases: cell-based
[1] = target: Free fatty acid receptor 1 (Homo sapiens) (UniProt O14842); assay: Agonist activity at human GPR40 expressed in rat INS1(832/13) cells harboring human proinsulin assessed as increase in glucose-stimulated insulin secretion at 10 uM incubated for 5 mins in presence of GPR40 antagonist DC260126 by ELISA
[2] = target: Free fatty acid receptor 1 (Homo sapiens) (UniProt O14842); assay: Agonist activity at human GPR40 expressed in rat INS1(832/13) cells harboring human proinsulin assessed as increase in glucose-stimulated insulin secretion at 20 to 40 uM incubated for 5 mins by ELISA
[3] = target: Free fatty acid receptor 1 (Homo sapiens) (UniProt O14842); assay: Partial agonist activity at human GPR40 expressed in rat INS1(832/13) cells harboring human proinsulin assessed as potentiation of 10 uM AV1-induced increase in glucose-stimulated insulin secretion by ELISA
[4] = target: Free fatty acid receptor 1 (Homo sapiens) (UniProt O14842); assay: Partial agonist activity at human GPR40 expressed in rat INS1(832/13) cells harboring human proinsulin assessed as potentiation of 2.5 uM AV1-induced increase in glucose-stimulated insulin secretion at 40 uM by ELISA
[5] = target: Free fatty acid receptor 1 (Homo sapiens) (UniProt O14842); assay: Antagonist activity at human GPR40 expressed in rat INS1(832/13) cells harboring human proinsulin assessed as inhibition of 20 uM AV1-induced increase in glucose-stimulated insulin secretion at 40 uM by ELISA
[6] = target: Free fatty acid receptor 1 (Homo sapiens) (UniProt O14842); assay: Partial agonist activity at human GPR40 expressed in rat INS1(832/13) cells harboring human proinsulin assessed as potentiation of 2.5 uM AV1-induced increase in glucose-stimulated insulin secretion at 21 uM by ELISA
[7] = target: Free fatty acid receptor 1 (Homo sapiens) (UniProt O14842); assay: Antagonist activity at human GPR40 expressed in rat INS1(832/13) cells harboring human proinsulin assessed as inhibition of 20 uM AV1-induced increase in glucose-stimulated insulin secretion at 21 uM by ELISA
[8] = target: Free fatty acid receptor 1 (Homo sapiens) (UniProt O14842); assay: Agonist activity at human GPR40 expressed in rat INS1(832/13) cells harboring human proinsulin assessed as increase in glucose-stimulated insulin secretion at 40 uM incubated for 5 mins in presence of GPR40 antagonist DC260126 by ELISA

Sequence of Free fatty acid receptor 1 (Homo sapiens) (O14842 whole entry): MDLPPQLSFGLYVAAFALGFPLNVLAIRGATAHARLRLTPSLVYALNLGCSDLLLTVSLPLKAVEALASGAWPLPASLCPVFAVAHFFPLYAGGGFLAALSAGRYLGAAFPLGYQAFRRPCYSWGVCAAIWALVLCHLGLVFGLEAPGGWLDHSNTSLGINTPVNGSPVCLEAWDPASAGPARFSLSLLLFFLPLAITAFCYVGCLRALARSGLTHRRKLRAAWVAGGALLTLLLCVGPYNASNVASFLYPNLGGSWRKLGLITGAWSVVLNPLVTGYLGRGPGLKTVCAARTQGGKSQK

Row | SMILES | Activity [1] | Activity [2] | Activity [3] | Activity [4] | Activity [5] | Activity [6] | Activity [7] | Activity [8]
1 | CCCCCCCC/C=C\CCCCCCCC(=O)Oc1c(-c2ccc3c(c2)OC(c2ccccc2)(c2ccccc2)O3)oc2cc(O)cc(O)c2c1=O | inactive | Active |  |  |  |  |  | 
2 | CCCCCCCC/C=C\CCCCCCCC(=O)Oc1c(-c2ccc(O)c(O)c2)oc2cc(O)cc(O)c2c1=O |  | Active | Dose-dependent effect | Active | Active | Active | Active | inactive
